Laboratory results as given in US4880835A, “Oral liquid pharmaceutical compositions of sulindac” (Formulations Development Labs, Inc., priority 1988, dated 1989).
Values belong to the molecule of their own block, whether it stands above or below them.

What was measured:
[1] = pH measurement of oral solutions diluted with water 1:10 and of sodium sulindac solution; type: physicochemical
Description: The results are shown below.

[2] = Stability, hygroscopicity and crystallization of salts and compositions; type: physicochemical
[3] = background statement; cited from earlier work

pH of aqueous solution ([1]; aqueous solution, 4%): 10.99 | hygroscopicity [2]: strongly hygroscopic | crystallization ([2]; in our hands): difficult to crystallize
SMILES: CC1=C(CC(=O)O)c2cc(F)ccc2/C1=C\c1ccc([S+](C)[O-])cc1 (stereo not drawn) [sodium sulindac]

SMILES: CC1=C(CC(=O)O)c2cc(F)ccc2/C1=C\c1ccc([S+](C)[O-])cc1 (stereo not drawn) [Sulindac]
absorption from the gastrointestinal tract [3]: erratically absorbed

pH of solutions, in words ([1]; compared with sodium sulindac solutions): acceptable for formulation | stability [2]: good stability
SMILES: CC1=C(CC(=O)O)c2cc(F)ccc2/C1=C\c1ccc([S+](C)[O-])cc1 (stereo not drawn) [calcium sulindac]
